{"source": "patent US12590093B2", "about": "“Indolo[2′,3′:3,4]pyrido[2,1-b]quinazoline compound and use thereof” (INSTITUTE OF MEDICINAL BIOTECHNOLOGY CHINESE ACADEMY OF …, priority 2019, dated 2026)", "key": {"[1]": {"biological_target": "T1, PPARα (Homo sapiens, UniProt Q07869)", "T1 construct": "expressed in transfected cells; host or cells: HepG2", "T1 sequence (Q07869 239-466 limits assumed)": "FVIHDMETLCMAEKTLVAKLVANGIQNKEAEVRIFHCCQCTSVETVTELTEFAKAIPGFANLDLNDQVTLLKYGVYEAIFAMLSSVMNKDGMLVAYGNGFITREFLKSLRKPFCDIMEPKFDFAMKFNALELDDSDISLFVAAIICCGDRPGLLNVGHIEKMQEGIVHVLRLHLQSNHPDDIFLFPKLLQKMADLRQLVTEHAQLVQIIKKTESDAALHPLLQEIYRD", "assay": "Nuclear receptor reporter gene transient transfection (pBIND-hPPARs-LBD) in HepG2 cells, PPARα", "type": "cell-based", "conditions": "FIG. 2, result in words", "description": "(§1) HepG2 cells in logarithmic growth phase were digested, seeded into the white/clear 96-well plate at a density of 5×10^4 cells/well/100 μL until the cells grew to about 90% confluence and in good condition. 0.5 μL liposome (Lipofectamine® 2000) diluted with blank medium to 25 μL per well and incubated at room temperature for 5 min. The corresponding plasmids DNA (nuclear receptor plasmid:Gal4=1:10) were diluted in blank DMEM medium to 25 μL/well (mixing of two plasmids), then mixed evenly with the diluted liposome, and incubated for 20 min at 37° C. The DNA-liposome complex (50 μL per well) was added with the DMEM complete medium (100 μL per well) and mixed thoroughly to obtain a DNA-liposome complex cell culture. The cell medium was discarded, and replaced with the DNA-liposome complex cell culture (150 μL/well) (37° C., 5% CO2). After 6 h, the DNA-liposome complex cell culture medium was discarded, and 200 μL serum-free DMEM medium containing the compound at an appropriate concentration was added to each test well, and cultured for 18-24 h. The cell Luciferase activity was measured by the method as described in the Luciferase Assay System."}, "[2]": {"biological_target": "T2, PPARδ (Homo sapiens, UniProt Q03181)", "T2 construct": "expressed in transfected cells; host or cells: HepG2", "T2 sequence (Q03181 211-439 limits assumed)": "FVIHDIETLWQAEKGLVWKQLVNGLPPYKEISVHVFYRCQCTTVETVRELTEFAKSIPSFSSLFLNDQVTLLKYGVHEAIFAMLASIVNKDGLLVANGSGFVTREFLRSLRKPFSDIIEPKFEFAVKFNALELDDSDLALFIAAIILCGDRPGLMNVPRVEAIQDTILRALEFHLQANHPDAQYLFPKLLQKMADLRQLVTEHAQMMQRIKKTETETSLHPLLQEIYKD", "assay": "Nuclear receptor reporter gene transient transfection (pBIND-hPPARs-LBD) in HepG2 cells, PPARδ", "type": "cell-based", "conditions": "FIG. 2, result in words", "description": "as §1"}, "[3]": {"test_system": "ApoE^−/− mice", "assay": "Atherosclerosis model in ApoE−/− mice on high-fat diet, Oil Red O staining of aorta", "type": "in vivo", "conditions": "5 mg/kg intragastrically, 12 weeks, HFD, versus model group", "description": "(§2) 6-week-old male C57/BL6 ApoE^−/− mice were fed on normal chaw diet for one week. The mice were randomly divided into three groups (control group, high-fat diet model group, and treatment group, 12 mice per group) according to the body weight. From 7-week-old, the high-fat diet model group and the treatment group were fed on a high fat diet (HFD) (0.15% cholesterol and 20% fat), and the control group was fed on normal chow diet. The treatment group (R3) mice were administered intragastrically with TR3 (5 mg/kg). The control group and the high-fat diet model group mice were intragastrically administered with sodium carboxymethylcellulose (CMC-Na) solution. After 12 weeks of administration, all mice were fasted overnight. The blood sample was taken from the retro-orbital plexus, collected in a EP tube, and then centrifuged for 15 min (2500 rpm). The centrifuged serum (upper layer) was transferred to new EP tubes (divided into two aliquots) and stored at −20° C. for further use. The mice were fixed, and the skin was cut open along the midline of the abdomen to the neck. The abdominal cavity was cut open to collect the fresh liver tissue. The Liver tissue was put into 3 freezing tubes, and then immediately put into liquid nitrogen for subsequent detection of liver lipid detection and extraction of RNA and protein. The thorax was cut open to expose the heart. […]"}, "[4]": {"test_system": "ApoE^−/− mice", "assay": "Serum lipid levels in ApoE−/− mice", "type": "in vivo", "conditions": "5 mg/kg intragastrically, 12 weeks, HFD, versus model group", "description": "(§3) 6-week-old male C57/BL6 ApoE^−/− mice were fed on normal chaw diet for one week. The mice were randomly divided into three groups (control group, high-fat diet model group, and treatment group, 12 mice per group) according to the body weight. From 7-week-old, the high-fat diet model group and the treatment group were fed on a high fat diet (HFD) (0.15% cholesterol and 20% fat), and the control group was fed on normal chow diet. The treatment group (R3) mice were administered intragastrically with TR3 (5 mg/kg). The control group and the high-fat diet model group mice were intragastrically administered with sodium carboxymethylcellulose (CMC-Na) solution. After 12 weeks of administration, all mice were fasted overnight. The blood sample was taken from the retro-orbital plexus, collected in a EP tube, and then centrifuged for 15 min (2500 rpm). The centrifuged serum (upper layer) was transferred to new EP tubes (divided into two aliquots) and stored at −20° C. for further use. The mice were fixed, and the skin was cut open along the midline of the abdomen to the neck. The abdominal cavity was cut open to collect the fresh liver tissue. The Liver tissue was put into 3 freezing tubes, and then immediately put into liquid nitrogen for subsequent detection of liver lipid detection and extraction of RNA and protein. The thorax was cut open to expose the heart. The heart was perfused with 10 ml PBS, and then fixed by perfusion with 4% paraformaldehyde solution until the liver turned white. The fixed liver was taken out and placed in a six-well plate containing 4% paraformaldehyde solution for further fixation. The full-length aorta (from the ascending aorta to the common iliac arteries) was isolated and placed in a six-well plate containing 4% paraformaldehyde solution. The aorta was fixed in 4% paraformaldehyde solution overnight and then stored in 20% sucrose solution at 4° C.\nThe plasma biochemical indices were measured by using commercially available kits (Biosino Bio-technology and Science Inc., China) and the automatic biochemical analyzer."}, "[5]": {"test_system": "NLRP3 inflammasome", "assay": "Western-blot of NLRP3 inflammasome proteins in liver of ApoE−/− mouse and J774A1 cells", "type": "in vivo, mice", "description": "as §3\n(§4) When animal tissues were used to prepare protein samples, the tissues were firstly homogenized and lysed in the RIPA lysis buffer. The subsequent steps were the same as those for preparing protein samples from cells. When cell supernatants were used to prepare protein samples, the supernatants were freeze-dried, needed to be extracted using a protein recovery kit (Applygen, Beijing, China), and then analyzed by western-blot.\nThe western-blot was used to detect the effects of TR3 on the activation of NLRP3 inflammasome and other related proteins in the liver of ApoE^−/− mouse and J774A1 cells."}, "[6]": {"test_system": "NF-κB signaling pathway", "assay": "Western-blot of NF-κB signaling pathway in liver of ApoE−/− mice", "type": "in vivo", "conditions": "FIG. 7", "description": "as §2, with “use.” for “use. The mice were fixed, and the skin was cut open along the midline of the abdomen to the neck. The abdominal cavity was cut open to collect the fresh liver tissue. The Liver tissue was put into 3 freezing tubes, and then immediately put into liquid nitrogen for subsequent detection of liver lipid detection and extraction of RNA and protein. The thorax was cut open to expose the heart.”\nas §4, with “The subsequent steps were the same as those for preparing protein samples from cells.” left out, “western-blot. […]” for “western-blot.”"}, "[7]": {"test_system": "ABCA1", "assay": "ABCA1 protein expression in liver of ApoE−/− mice", "type": "in vivo", "conditions": "FIG. 10", "description": "as §2, with “use.” for “use. The mice were fixed, and the skin was cut open along the midline of the abdomen to the neck. The abdominal cavity was cut open to collect the fresh liver tissue. The Liver tissue was put into 3 freezing tubes, and then immediately put into liquid nitrogen for subsequent detection of liver lipid detection and extraction of RNA and protein. The thorax was cut open to expose the heart.”\nas §4, with “The subsequent steps were the same as those for preparing protein samples from cells.” left out"}, "[8]": {"test_system": "SR-BI", "assay": "SR-BI protein expression in liver of ApoE−/− mice", "type": "in vivo", "conditions": "FIG. 10", "description": "as §2, with “use.” for “use. The mice were fixed, and the skin was cut open along the midline of the abdomen to the neck. The abdominal cavity was cut open to collect the fresh liver tissue. The Liver tissue was put into 3 freezing tubes, and then immediately put into liquid nitrogen for subsequent detection of liver lipid detection and extraction of RNA and protein. The thorax was cut open to expose the heart.”\nas §4, with “The subsequent steps were the same as those for preparing protein samples from cells.” left out"}, "[9]": {"test_system": "NLRP3 inflammasome", "assay": "NLRP3 inflammasome in J774A.1 cells with MAPK agonist Anisomycin", "type": "cell-based", "conditions": "MAPK signaling pathway agonist Anisomycin added, FIG. 9", "excerpt": "as §4\nAfter that, the MAPK signaling pathway agonist Anisomycin and TR3 were added into J774A-1 cells."}, "[10]": {"test_system": "ABCA1", "assay": "ABCA1 up-regulation, luciferase reporter in ABCA1P-LUC HepG2 cells", "type": "cell-based", "conditions": "co-incubated with MK886, GW9662, GSK3787 or GGPP"}, "[11]": {"conditions": "liver of ApoE−/− mouse and J774A1 cells, western-blot, FIG. 6"}}}
{"compound": "c1ccc2c(c1)CN1CCc3c([nH]c4ccccc34)C1=N2", "note": "[TR3, 5,7,8,13-tetrahydroindolo[2′,3′:3,4]pyrido[2,1-b]quinazoline]", "values": [{"measurement": "activation of PPARα", "setting": "[1]", "result": "simultaneously activated PPARα/γ/δ and LXRα/β to a certain extent"}, {"measurement": "activation of PPARδ", "setting": "[2]", "result": "simultaneously activated PPARα/γ/δ and LXRα/β to a certain extent"}, {"measurement": "atherosclerotic plaque area in the aorta", "setting": "[3]", "result": "significantly reduced"}, {"measurement": "level of LDL-C in serum", "setting": "[4]", "result": "greatly decreased"}, {"measurement": "level of TC in serum", "setting": "[4]", "result": "greatly decreased"}, {"measurement": "level of TG in serum", "setting": "[4]", "result": "greatly decreased"}, {"measurement": "activation of NLRP3 inflammasome in the liver", "setting": "[5]; liver of ApoE−/− mice", "result": "significantly inhibited"}, {"measurement": "expression of Caspase-1 protein", "setting": "[5]; [11]", "result": "significantly inhibited"}, {"measurement": "expression of IL-1β protein", "setting": "[5]; [11]", "result": "significantly inhibited"}, {"measurement": "expression of NLRP3 protein", "setting": "[5]; [11]", "result": "significantly inhibited"}, {"measurement": "expression of p-IκBα", "setting": "[6]", "result": "significantly inhibited"}, {"measurement": "expression of p-P65", "setting": "[6]", "result": "significantly inhibited"}, {"measurement": "expression of ABCA1 in the liver", "setting": "[7]", "result": "increased"}, {"measurement": "expression of SR-BI in the liver", "setting": "[8]", "result": "increased"}, {"measurement": "inhibitory effect on NLRP3, Caspase-1 and IL-1β with Anisomycin added", "setting": "[9]", "result": "reduced"}, {"measurement": "up-regulating transcription activity of ABCA1 when co-incubated with nuclear receptor inhibitor", "setting": "[10]", "result": "significantly inhibited"}]}
